Measurements as given in patent publication US10179761B2, “Compounds, pharmaceutical composition and their use in treating neurodegenerative diseases” (UNIVERSITE DE LILLE 2 DROIT ET SANTE, priority 2014, dated 2019).
Where “and” joins values, the source holds several entries; their conditions need not be identical. Equal entries are not always repeated. Where two headings read alike, the source gives them in different places.

What was measured:
[1] = target: T1, σ1 receptors (Homo sapiens (Human), UniProt Q99720); experiment: σ1 binding assay, Jurkat cell membranes, [3H](+)-pentazocine; conditions: selectivity, Ki sigma 2 / Ki sigma 1
Description: (§1) The σ binding assays were performed according to Ganapathy et al. (Ganapathy, M. E.; Prasad, P. D.; Huang, W.; Seth, P.; Leibach, F. H.; Ganapathy, V. Molecular and ligand-binding characterization of the sigma-receptor in the Jurkat human T lymphocyte cell line. J. Pharmacol. Exp. Ther. 1999, 289, 251-260). […] The σ2 binding assay was performed by incubating Jurkat cell membranes ([…] protein per tube) with [^3H]-DTG (25 nM) in presence of (+)-pentazocine (1 μM) to saturate σ1 receptors, and a range of concentrations of tested compounds, at room temperature for 1 hour in 5 mM Tris/HCl buffer (pH=7.4). The final assay volume was 0.5 mL. Binding was terminated by rapid filtration through Wathman GF/B filters, which were then washed with 5×1 mL ice-cold NaCl solution and allowed to dry before bound radioactivity was measured using liquid scintillation counting. Nonspecific binding was determined, in both assays, under similar conditions, but in presence of 10 μM unlabeled haloperidol. Inhibition constants (Ki) were calculated from the IC50 values according to the method of Cheng and Prusoff (Cheng, Y.; Prusoff, W. H. Relationship between the inhibition constant (Ki) and the concentration of inhibitor which causes 50 percent inhibition (IC50) of an enzymatic reaction. Biochem Pharmacol. 1973, 22 (23), 3099-108): […]

[2] = target: σ2 receptors (Homo sapiens (Human), UniProt Q5BJF2); experiment: σ2 binding assay, Jurkat cell membranes, [3H]-DTG in presence of (+)-pentazocine; conditions: read-out: Sigma 2 Ki
Description: as §1

[3] = target: T1, σ1 receptors; experiment: σ1 binding assay, Jurkat cell membranes, [3H](+)-pentazocine; conditions: hydrochloride salts; mean of 2 or 3 independent experiments; Ki from IC50 (Cheng-Prusoff); read-out: Sigma 1 Ki
[4] = system: Male Swiss mice; experiment: Dizocilpine-induced learning deficits: spontaneous alternation in the Y-maze; format: in vivo; conditions: NE-100 3 mg/kg + dizocilpine 0.15 mg/kg i.p.
Description: (§2) The activity of compound 3.1.10 was evaluated on the prevention of the dizocilpine-induced learning deficits measured using two behavioral tests. The present experiment tested if its anti-amnesic activity could be blocked by pretreatment with the reference sigma-1 receptor antagonist NE-100.
(§3) • Sixty (60) mice were used. Behavioral testing started one week after the arrival of the animals in the AMYLGEN animal facility. • 5 treatment groups were designed and used as follows:
(§4) • Vehicle 1 was physiological saline for dizocilpine, DMSO 2% in water for compound 3.1.10 • Animals were used at day 1 in the Y-maze test and at days 2 and 3 in the passive avoidance test, with training at day 2 and retention at day 3. • Test compounds, compound 3.1.10 and/or NE-100 were administered 10 min before dizocilpine (at 0.15 mg/kg i.p.) or vehicle. • Dizocilpine or vehicle 1 was administered 20 min before the Y-maze test session on day 1. • Dizocilpine or vehicle 1 was administered 20 min before the passive avoidance training session on day 2. Drugs were not injected before the retention session on day 3. • The whole experiment program was performed in a single serie experiment. • Treatments were randomized. 2.1.2. Animals
Male Swiss mice, 6 weeks old and weighing 30-35 g, from JANVIER (Saint Berthevin, France), were housed in groups with access to food and water ad libitum, except during experiments. They were kept in a temperature and humidity controlled animal facility on a 12 h/12 h light:dark cycle (lights on at 7:00 am). […]
Animals were tested for spontaneous alternation performance in the Y-maze, an index of spatial working memory. […] The number of maximum alternations was therefore the total number of arm entries minus two and the percentage of alternation was calculated as: (actual alternations/maximum alternations)×100. […]
All values, except passive avoidance latencies, were expressed as mean±S.E.M. Statistical analyses were performed using two-way ANOVA (F value), with genotype and peptide treatment as independent factors, followed by a Dunn's post-hoc multiple comparison test.

[5] = system: Male Swiss mice; experiment: Dizocilpine-induced learning deficits: step-through passive avoidance test; format: in vivo; conditions: NE-100 3 mg/kg + dizocilpine 0.15 mg/kg i.p.
Description: as §2, §3, §4
Male Swiss mice, 6 weeks old and weighing 30-35 g, from JANVIER (Saint Berthevin, France), were housed in groups with access to food and water ad libitum, except during experiments. […]
The apparatus is a two-compartments (15×20×15 cm high) box with one illuminated with white polyvinylchloride walls and the other darkened with black polyvinylchloride walls and a grid floor. […] The step-through latency (the latency spent to enter the dark compartment) and the number of vocalizations was recorded. […] The step-through latency was recorded up to 300 s. When the mouse entered the dark compartment or 300 s has elapsed (they were therefore manually placed in it), the escape latency (latency to exit from the dark compartment) was recorded up to 300 s.
They were therefore analyzed using a Kruskal-Wallis non-parametric ANOVA (H value), followed by a Dunn's multiple comparison test.

[6] = hydrochloride salts, mean of 2 or 3 independent experiments, Ki from IC50 (Cheng-Prusoff)

T1 sequence (Q99720 whole entry): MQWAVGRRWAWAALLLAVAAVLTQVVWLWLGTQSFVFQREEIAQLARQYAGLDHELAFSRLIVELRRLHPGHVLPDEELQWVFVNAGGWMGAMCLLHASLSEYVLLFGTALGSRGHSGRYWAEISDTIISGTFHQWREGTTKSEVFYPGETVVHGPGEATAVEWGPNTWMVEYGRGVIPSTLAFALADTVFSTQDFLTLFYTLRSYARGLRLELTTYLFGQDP
Sequence of σ2 receptors (Q5BJF2 whole entry): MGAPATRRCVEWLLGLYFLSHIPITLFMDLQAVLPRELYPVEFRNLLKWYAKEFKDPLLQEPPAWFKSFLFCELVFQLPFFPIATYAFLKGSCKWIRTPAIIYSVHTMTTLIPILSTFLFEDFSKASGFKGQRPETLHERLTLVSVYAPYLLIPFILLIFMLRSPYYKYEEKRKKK

SMILES	Ratio σ2/σ1 [1]	Ki [2] [nM]	Ki [3]	Ki [2, 6] [nM]	effect of NE-100 by itself on dizocilpine-induced deficits, Y-maze test [4]	effect of NE-100 by itself on dizocilpine-induced deficits, passive avoidance test [5]
CN(CCC(=O)NCc1ccc(Cl)cc1)Cc1ccccc1 [Compound 3.4a, N-(4-chlorobenzyl)-3-(benzylmethylamino)propanamide]	241	410	1.7 nM	–	–	–
CN(CCC(=O)NCc1ccc(C#N)cc1)Cc1ccccc1 [Compound 3.4c, N-(4-Cyanobenzyl)-3-(benzylmethylamino)propanamide]	321	1800	5.6 nM	–	–	–
CN(CCNC(=O)c1ccc([N+](=O)[O-])cc1)Cc1ccccc1 [Compound 3.1.37, N-(2-(benzyl(methyl)amino)ethyl)-4-nitrobenzamide]	–	–	3.6 nM	1400	–	–
CN(CCNC(=O)c1ccc(Cl)cc1Cl)Cc1ccccc1 [Compound 3.1.34, N-(2-(benzyl(methyl)amino)ethyl)-2,4-dichlorobenzamide]	17	–	6.5 nM	110	–	–
CN(CCC(=O)NCc1ccc(Cl)cc1Cl)Cc1ccccc1 [Compound 3.4d, N-(2,4-Dichlorobenzyl)-3-(benzylmethylamino)propanamide]	52	120	2.3 nM	–	–	–
CN(CCNC(=O)c1ccc(Cl)cc1)Cc1ccccc1 [Compound 3.1.9, N-[3-(2-(N-methylbenzyl)amino)ethyl]-4-chlorobenzamide]	–	–	–	850	–	–
CN(CCCNC(=O)c1ccc(Cl)cc1Cl)Cc1ccccc1 [Compound 3.1.24, N-[3-(benzylmethylamino)propyl]-2,4-dichlorobenzamide]	238	–	1.3 to 3.6 nM and 1.3 nM	310	–	–
CN(CCC(=O)NCc1cccc(Cl)c1)Cc1ccccc1 [Compound 3.4e, N-(3-Chlorobenzyl)-3-(benzylmethylamino)propanamide]	317	200	0.63 nM	–	–	–
CN(CCCNC(=O)c1ccc(F)cc1)Cc1ccccc1 [Compound 3.1.6, N-[3-(benzylmethylamino)propyl]-4-fluorobenzamide]	24	–	20 nM	470	–	–
CN(CCCNC(=O)c1ccc(Cl)cc1)CCc1ccccc1 [Compound 3.1.12, N-[3-(N-methyl-2-phenylethylamino)propyl]-4-chlorobenzamide]	47	–	4.3 nM	200	–	–
CN(CCCNC(=O)c1cccc(Br)c1)Cc1ccccc1 [Compound 3.1.21, N-[3-(benzylmethylamino)propyl]-3-bromobenzamide]	90	–	3.9 nM	350	–	–
CN(CCCNC(=O)c1ccc(Br)cc1F)Cc1ccccc1 [Compound 3.1.27, N-[3-(benzylmethylamino)propyl]-4-bromo-2-fluorobenzamide]	–	–	2.9 nM	–	–	–
CN(CCNC(=O)c1ccc(C#N)cc1)Cc1ccccc1 [Compound 3.1.36, N-(2-(benzyl(methyl)amino)ethyl)-4-cyanobenzamide]	–	–	1.2 nM	170	–	–
CN(CCC(=O)NCc1ccc([N+](=O)[O-])cc1)Cc1ccccc1 [Compound 3.4b, N-(4-Nitrobenzyl)-3-(benzylmethylamino)propanamide]	–	6500	1.3 to 3.6 nM and 2.3 nM	–	–	–
CN(CCCNC(=O)c1cccc(Cl)c1)Cc1ccccc1 [Compound 3.1.8, N-[3-(benzylmethylamino)propyl]-3-chlorobenzamide]	34	–	10 nM	340	–	–
CCCN(CCC)CCc1ccc(OC)c(OCCc2ccccc2)c1.Cl [NE-100, reference compound]	–	–	–	–	devoid of effect by itself	devoid of effect by itself
CN(CCCNC(=O)c1cc(Cl)cc(Cl)c1)Cc1ccccc1 [Compound 3.1.26, N-[3-(benzylmethylamino)propyl]-3,5-dichlorobenzamide]	2	–	23 nM	48	–	–
O=C(NCCCNCN1Cc2ccccc2C1)c1ccc(Cl)cc1 [Compound 3.1.15]	–	–	19 nM	–	–	–
